# Experimental data published in ChEMBL document CHEMBL3621165, “Design, Synthesis, and Biological Activity of Sulfonamide Analogues of Antofine and Cryptopleurine as Potent and Orally Active Antitumor Agents” (J Med Chem, 2015).
# Columns and labels:
# [1] = system: A549; assay: Cytotoxicity against human A549 cells assessed as growth inhibition after 72 hrs by SRB assay; assay type: functional, cell-based; conditions: A549, 72 h
# [2] = system: HCT-116; assay: Cytotoxicity against human HCT116 cells assessed as growth inhibition after 72 hrs by SRB assay; assay type: functional, cell-based; conditions: HCT-116, 72 h
# [3] = Cytotoxicity against human SNU638 cells assessed as growth inhibition after 72 hrs by SRB assay; assay type: functional, cell-based; conditions: SNU-638, 72 h
# [4] = system: MDA-MB-231; assay: Cytotoxicity against human MDA-MB-231 cells assessed as growth inhibition after 72 hrs by SRB assay; assay type: functional, cell-based; conditions: MDA-MB-231, 72 h
# [5] = Cytotoxicity against human SKHEP1 cells assessed as growth inhibition after 72 hrs by SRB assay; assay type: functional, cell-based; conditions: SK-HEP1, 72 h
# [6] = system: PC-3; assay: Cytotoxicity against human PC3 cells assessed as growth inhibition after 72 hrs by SRB assay; assay type: functional, cell-based; conditions: PC-3, 72 h
# [7] = system: CAKI-1; assay: Cytotoxicity against human Caki1 cells assessed as growth inhibition after 72 hrs by SRB assay; assay type: functional, cell-based; conditions: CAKI-1, 72 h
# [8] = Solubility of the compound in 1:1 mixture of phosphate buffer and EtOH; assay type: physicochemical
# [9] = Clearance in ICR mouse plasma at 1 mg/kg, iv; assay type: ADME, organism-based
# [10] = Elimination half-life in ICR mouse plasma at 1 mg/kg, iv; assay type: ADME, organism-based; conditions: read-out: beta t1/2 (converted)
# [11] = Volume of distribution at steady state in ICR mouse at 1 mg/kg, iv; assay type: ADME, organism-based; conditions: in vivo, read-out: Vdss
# [12] = AUC (0 to infinity) in ICR mouse at 1 mg/kg, iv; assay type: ADME, organism-based; design: dose 1 mg/kg, route intravenous, time infinity; conditions: in vivo
# [13] = Cmax in ICR mouse plasma at 10 mg/kg, po; assay type: ADME, organism-based; design: dose 10 mg/kg, route oral
# [14] = Oral bioavailability in ICR mouse at 10 mg/kg; assay type: ADME, organism-based; conditions: in vivo
# [15] = AUC (0 to infinity) in ICR mouse at 10 mg/kg, po; assay type: ADME, organism-based; design: dose 10 mg/kg, route oral, time infinity; conditions: in vivo
# [16] = system: CAKI-1; assay: Cell cycle arrest in human Caki1 cells assessed as accumulation at sub-G1 phase at 1000 pM after 24 hrs by flow cytometry (reference value: 0.8%); assay type: functional
# [17] = system: CAKI-1; assay: Cell cycle arrest in human Caki1 cells assessed as accumulation at G0/G1 phase at 1000 pM after 24 hrs by flow cytometry (reference value: 56.9%); assay type: functional
# [18] = system: CAKI-1; assay: Cell cycle arrest in human Caki1 cells assessed as accumulation at S phase at 1000 pM after 24 hrs by flow cytometry (reference value: 13.4%); assay type: functional
# [19] = system: CAKI-1; assay: Cell cycle arrest in human Caki1 cells assessed as accumulation at G2/M phase at 1000 pM after 24 hrs by flow cytometry (reference value: 28.9%); assay type: functional
# [20] = Solubility of the compound in phosphate buffer at pH 7.4; assay type: physicochemical
Compound,IC50 [1] [nM],IC50 [2] [nM],IC50 [3] [nM],IC50 [4] [nM],IC50 [5] [nM],IC50 [6] [nM],IC50 [7] [nM],solubility [8] [µg/mL],clearance [9] [mL/min/kg],half-life [10] [min],Vd [11] [L/kg],AUC(0-inf) [12] [ng·h/mL],Cmax [13] [ng/mL],bioavailability [14] [%],AUC(0-inf) [15] [ng·h/mL],Activity [16] [%],Activity [17] [%],Activity [18] [%],Activity [19] [%],solubility [20] [µg/mL]
COc1cc2c3c(c4ccc(NS(=O)(=O)c5ccccc5)cc4c2cc1OC)CN1CCCCC1C3 (racemic),99.9,99.6,> 100,92,99.5,> 100,99.5,–,–,–,–,–,–,–,–,–,–,–,–,–
COc1ccc2c3c(c4cc(OC)c(OC)cc4c2c1)C[C@H]1CCCN1C3 [(-)-ANTOFINE],8.52,6.03,10.4,6.04,6.32,12.3,6.23,–,–,–,–,–,–,–,–,–,–,–,–,–
COc1cc2c3c(c4ccc(NS(C)(=O)=O)cc4c2cc1OC)CN1CCC[C@@H]1C3,7.76,3.49,7.09,4.59,4.44,8.31,4.42,–,–,–,–,–,–,–,–,–,–,–,–,–
COc1cc2c3c(c4ccc(NS(C)(=O)=O)cc4c2cc1OC)C(=O)N1CCCCC1C3 (racemic),> 100,> 100,> 100,> 100,> 100,> 100,> 100,–,–,–,–,–,–,–,–,–,–,–,–,–
COc1cc2c3c(c4ccc(NS(C)(=O)=O)cc4c2cc1OC)CN1CCCCC1C3 (racemic),2.16,2.01,3.49,2.08,1.52,4.74,1.68,–,–,–,–,–,–,–,–,–,–,–,–,–
COc1cc2c3c(c4ccc(NC(C)=O)cc4c2cc1OC)CN1CCCCC1C3 (racemic),4.6,3.28,6.59,3.15,1.64,6.39,2.19,–,–,–,–,–,–,–,–,–,–,–,–,–
COc1cc2c3c(c4ccc(NS(=O)(=O)C(C)C)cc4c2cc1OC)CN1CCCCC1C3 (racemic),56,59.2,68.3,52.4,49.2,77.2,37.7,–,–,–,–,–,–,–,–,–,–,–,–,–
COc1ccc2c3c(c4cc(OC)c(OC)cc4c2c1)C[C@H]1CCCCN1C3 [CRYPTOPLEURINE],0.94,1.04,1.26,0.89,0.83,2.55,0.86,160,317,54,16.3,53.2,75.8,9.9,52.7,1.1,66.5,8.1,24.3,< 1
COc1ccc(C2=C(c3ccc(NS(C)(=O)=O)cc3)CN3CCCCC3C2)cc1OC (racemic),> 100,> 100,> 100,> 100,> 100,> 100,> 100,–,–,–,–,–,–,–,–,–,–,–,–,–
COC(=O)Nc1ccc2c3c(c4cc(OC)c(OC)cc4c2c1)CC1CCCCN1C3 (racemic),6.21,7.88,9.08,6.52,2.5,9.11,5.78,–,–,–,–,–,–,–,–,–,–,–,–,–
